# Laboratory results from US10316017B2, “COT modulators and methods of use thereof” (Gilead Sciences, Inc., priority 2015, dated 2019).
# pEC50, pIC50: −log10 of the molar value.
# What was measured:
# [1] = biological target: T1, human Cot catalytic domain (30-397 amino acids) (Homo sapiens, UniProt P41279); test: High Throughput Cot Biochemical Assay (KinEASE TR-FRET); conditions: Cot KinEASE TR-FRET, 400 μM ATP; read-out: IC50 HTRF
# T1 construct: Purified recombinant human Cot catalytic domain (30-397 amino acids) was purchased from Cama Biosciences; purchased Cama Biosciences (so in the source)
# T1 sequence (P41279 30-397): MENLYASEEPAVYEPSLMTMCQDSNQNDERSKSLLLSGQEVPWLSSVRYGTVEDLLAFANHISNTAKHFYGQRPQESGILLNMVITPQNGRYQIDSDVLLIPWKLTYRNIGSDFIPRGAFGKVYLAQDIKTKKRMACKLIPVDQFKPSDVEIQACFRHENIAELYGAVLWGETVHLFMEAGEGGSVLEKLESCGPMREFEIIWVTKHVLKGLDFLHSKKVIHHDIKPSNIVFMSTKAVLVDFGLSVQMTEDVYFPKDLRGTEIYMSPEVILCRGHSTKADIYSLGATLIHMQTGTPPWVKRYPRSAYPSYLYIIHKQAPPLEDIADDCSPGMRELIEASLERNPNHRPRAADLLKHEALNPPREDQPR
# Procedure, shortened: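 Reaction of 5 nM recombinant human Cot catalytic domain (aa 30-397) with 1 μM STK3 peptide (XL665-labeled) and 400 μM ATP in 10 mM MOPS pH 7.0, 10 mM MgOAc, 1 mM DTT, 0.5 mg/mL BSA, 0.1% DMSO. Phosphopeptide detected by TR-FRET with europium anti-phospho antibody.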
# [2] = system: TNFα production in LPS-stimulated human monocytes; test: Cot Monocyte TNFα Cell Based Assay; conditions: Homo sapiens, Monocyte, LPS-stimulated human monocytes, TNFα TR-FRET; read-out: EC50 TNF
# Procedure, shortened: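 Cells at 5,000/well were pretreated with compound for 1 h at 37 °C (0.5% DMSO final), then stimulated with 50 pg/ml LPS for 4 h at 37 °C. Supernatant TNFα was measured by two-antibody TR-FRET after overnight room-temperature incubation; values are percent of control between unstimulated and stimulated wells.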
Structure (SMILES),pIC50 [1],pEC50 [2]
"Cc1c([C@H](Nc2cc(C#N)c3ncc(C#N)c(NCC(C)(C)C)c3c2)c2cn(C3(C(F)(F)F)CC3)nn2)cccc1-n1cncn1 [Example 1043, (S)-6-(((2-methyl-3-(1H-1,2,4-triazol-1-yl)phenyl)(1-(1-(trifluoromethyl)cyclopropyl)-1H-1,2,3-triazol-4-yl)methyl)amino)-4-(neopentylamino)quinoline-3,8-dicarbonitrile]",8.52,6.96
"Cc1c([C@H](Nc2cc(C#N)c3ncc(C#N)c(NCC(C)(C)C)c3c2)c2cn(C3(C(F)(F)F)CC3)nn2)cccc1-n1nccn1 [Example 1044, (S)-6-(((2-methyl-3-(2H-1,2,3-triazol-2-yl)phenyl)(1-(1-(trifluoromethyl)cyclopropyl)-1H-1,2,3-triazol-4-yl)methyl)amino)-4-(neopentylamino)quinoline-3,8-dicarbonitrile]",8.10,6.67
"Cc1c([C@H](Nc2cc(C#N)c3ncc(C#N)c(NCC(C)(C)C)c3c2)c2cn(C3(C(F)(F)F)CC3)nn2)cccc1-n1cccn1 [Example 1045, (S)-6-(((2-methyl-3-(1H-pyrazol-1-yl)phenyl)(1-(1-(trifluoromethyl)cyclopropyl)-1H-1,2,3-triazol-4-yl)methyl)amino)-4-(neopentylamino)quinoline-3,8-dicarbonitrile]",8.30,6.57
"[2H]c1c([C@@]([2H])(Nc2cc(Cl)c3ncc(C#N)c(NCC(C)(C)C)c3c2)c2c(F)cccc2Cl)nnn1C1(C)CC1 [Example 1046, (S)-8-chloro-6-(((2-chloro-6-fluorophenyl)(1-(1-methylcyclopropyl)-1H-1,2,3-triazol-4-yl-5-d)methyl-d)amino)-4-(neopentylamino)quinoline-3-carbonitrile]",6.85,≤ 6.00
"[2H][C@@](Nc1cc(Cl)c2ncc(C#N)c(NCC(C)(C)C)c2c1)(c1cn(C2(C)CC2)nn1)c1c(F)cccc1Cl [Example 1047, (S)-8-chloro-6-(((2-chloro-6-fluorophenyl)(1-(1-methylcyclopropyl)-1H-1,2,3-triazol-4-yl)methyl-d)amino)-4-(neopentylamino)quinoline-3-carbonitrile]",7.00,≤ 6.00
"[2H]c1c([C@@]([2H])(Nc2cc(C#N)c3ncc(C#N)c(NCC(C)(C)C)c3c2)c2c(F)cccc2Cl)nnn1C1(C)CC1 [Example 1048, (S)-6-(((2-chloro-6-fluorophenyl)(1-(1-methylcyclopropyl)-1H-1,2,3-triazol-4-yl-5-d)methyl-d)amino)-4-(neopentylamino)quinoline-3,8-dicarbonitrile]",7.48,6.20
"Cc1c([C@H](Nc2cc(Cl)c3ncc(C#N)c(NCC(C)(C)C)c3c2)c2cn(C3(C(F)F)CC3)nn2)cccc1-n1cncn1 [Example 1049, (S)-8-chloro-6-(((1-(1-(difluoromethyl)cyclopropyl)-1H-1,2,3-triazol-4-yl)(2-methyl-3-(1H-1,2,4-triazol-1-yl)phenyl)methyl)amino)-4-(neopentylamino)quinoline-3-carbonitrile]",8.70,7.46
"Cc1c(-c2ncco2)cccc1[C@H](Nc1cc(Cl)c2ncc(C#N)c(NCC(C)(C)C)c2c1)c1cn(C2(C(F)(F)F)CC2)nn1 [Example 1050, (S)-8-chloro-6-(((2-methyl-3-(oxazol-2-yl)phenyl)(1-(1-(trifluoromethyl)cyclopropyl)-1H-1,2,3-triazol-4-yl)methyl)amino)-4-(neopentylamino)quinoline-3-carbonitrile]",8.15,6.69
"Cc1c(-c2ncco2)cccc1[C@H](Nc1cc(Cl)c2ncc(C#N)c(NCC(C)(C)C)c2c1)c1cn(C2(C(F)F)CC2)nn1 [Example 1051, (S)-8-chloro-6-(((1-(1-(difluoromethyl)cyclopropyl)-1H-1,2,3-triazol-4-yl)(2-methyl-3-(oxazol-2-yl)phenyl)methyl)amino)-4-(neopentylamino)quinoline-3-carbonitrile]",8.40,6.79
"CC(C)(C)CNc1c(C#N)cnc2c(Br)cc(N[C@H](c3cn(Cc4c(F)cccc4F)nn3)c3ccccc3Cl)cc12 [Example 1052, (S)-8-bromo-6-(((2-chlorophenyl)(1-(2,6-difluorobenzyl)-1H-1,2,3-triazol-4-yl)methyl)amino)-4-(neopentylamino)quinoline-3-carbonitrile]",6.72,≤ 6.00
"CC(C)(C)CNc1c(C#N)cnc2c(C#N)cc(N[C@H](c3cn(Cc4c(F)cccc4F)nn3)c3ccccc3Cl)cc12 [Example 1053, (S)-6-(((2-chlorophenyl)(1-(2,6-difluorobenzyl)-1H-1,2,3-triazol-4-yl)methyl)amino)-4-(neopentylamino)quinoline-3,8-dicarbonitrile]",7.59,6.70
"Cc1c([C@H](Nc2cc(C#N)c3ncc(C#N)c(NCC(C)(C)C)c3c2)c2cn(C3(C(F)F)CC3)nn2)cccc1-n1cncn1 [Example 1054, (S)-6-(((1-(1-(difluoromethyl)cyclopropyl)-1H-1,2,3-triazol-4-yl)(2-methyl-3-(1H-1,2,4-triazol-1-yl)phenyl)methyl)amino)-4-(neopentylamino)quinoline-3,8-dicarbonitrile]",9.00,7.09
"Cc1c(-c2ncco2)cccc1[C@H](Nc1cc(C#N)c2ncc(C#N)c(NCC(C)(C)C)c2c1)c1cn(C2(C(F)(F)F)CC2)nn1 [Example 1055, (S)-6-(((2-methyl-3-(oxazol-2-yl)phenyl)(1-(1-(trifluoromethyl)cyclopropyl)-1H-1,2,3-triazo1-4-yl)methyl)amino)-4-(neopentylamino)quinoline-3,8-dicarbonitrile]",8.52,7.00
"Cc1c(-c2ncco2)cccc1[C@H](Nc1cc(C#N)c2ncc(C#N)c(NCC(C)(C)C)c2c1)c1cn(C2(C(F)F)CC2)nn1 [Example 1056, (S)-6-(((1-(1-(difluoromethyl)cyclopropyl)-1H-1,2,3-triazol-4-yl)(2-methyl-3-(oxazol-2-yl)phenyl)methyl)amino)-4-(neopentylamino)quinoline-3,8-dicarbonitrile]",8.70,7.20
"Cc1c([C@H](Nc2cc(Cl)c3ncc(C#N)c(NCC(C)(C)C)c3c2)c2cn(C3(C(F)(F)F)CC3)nn2)cccc1-n1cnnn1 [Example 1057, (S)-8-chloro-6-(((2-methyl-3-(1H-tetrazol-1-yl)phenyl)(1-(1-(trifluoromethyl)cyclopropyl)-1H-1,2,3-triazol-4-yl)methyl)amino)-4-(neopentylamino)quinoline-3-carbonitrile]",8.40,7.14
"CC(C)(C)CNc1c(C#N)cnc2c(Cl)cc(N[C@@H](c3ccccc3)c3cn(C4(C(F)(F)F)CC4)nn3)cc12 [Example 1059, (S)-8-chloro-4-(neopentylamino)-6-((phenyl(1-(1-(trifluoromethyl)cyclopropyl)-1H-1,2,3-triazol-4-yl)methyl)amino)quinoline-3-carbonitrile]",7.12,6.26
"Cc1ccccc1[C@H](Nc1cc(Cl)c2ncc(C#N)c(NCC(C)(C)C)c2c1)c1cn(C2(C(F)F)CC2)nn1 [Example 1060, (S)-8-chloro-6-(((1-(1-(difluoromethyl)cyclopropyl)-1H-1,2,3-triazol-4-yl)(o-tolyl)methyl)amino)-4-(neopentylamino)quinoline-3-carbonitrile]",7.48,6.51
"Cc1ccccc1[C@H](Nc1cc(Cl)c2ncc(C#N)c(NCC(C)(C)C)c2c1)c1cn(C2(C(F)(F)F)CC2)nn1 [Example 1061, (S)-8-chloro-4-(neopentylamino)-6-((o-tolyl(1-(1-(trifluoromethyl)cyclopropyl)-1H-1,2,3-triazol-4-yl)methyl)amino)quinoline-3-carbonitrile]",7.07,6.21
"Cc1c([C@H](Nc2cc(Cl)c3ncc(C#N)c(NCC(C)(C)C)c3c2)c2cn(C3(C(F)F)CC3)nn2)cccc1-n1cnnn1 [Example 1062, (S)-8-chloro-6-(((1-(1-(difluoromethyl)cyclopropyl)-1H-1,2,3-triazol-4-yl)(2-methyl-3-(1H-tetrazol-1 yl)phenyl)methyl)amino)-4-(neopentylamino)quinoline-3-carbonitrile]",8.52,7.15
"Cc1c([C@H](Nc2cc(Cl)c3ncc(C#N)c(NCC(C)(C)C)c3c2)c2cn(C3(C(F)(F)F)CC3)nn2)cccc1-n1ccnn1 [Example 1063, (S)-8-chloro-6-(((2-methyl-3-(1H-1,2,3-triazol-1-yl)phenyl)(1-(1-(trifluoromethyl)cyclopropyl)-1H-1,2,3-triazol-4-yl)methyl)amino)-4-(neopentylamino)quinoline-3-carbonitrile]",8.22,7.14
"CC(C)(C)CNc1c(C#N)cnc2c(C#N)cc(N[C@@H](c3ccccc3)c3cn(C4(C(F)F)CC4)nn3)cc12 [Example 1064, (S)-6-(((1-(1-(difluoromethyl)cyclopropyl)-1H-1,2,3-triazol-4-yl)(phenyl)methyl)amino)-4-(neopentylamino)quinoline-3,8-dicarbonitrile]",7.92,6.99
"CC(C)(C)CNc1c(C#N)cnc2c(C#N)cc(N[C@@H](c3ccccc3)c3cn(C4(C(F)(F)F)CC4)nn3)cc12 [Example 1065, (S)-4-(neopentylamino)-6-((phenyl(1-(1-(trifluoromethyl)cyclopropyl)-1H-1,2,3-triazol-4-yl)methyl)amino)quinoline-3,8-dicarbonitrile]",7.66,6.63
